Measured values from ChEMBL document CHEMBL4382216, “Asymmetric synthesis and biological evaluation of imidazole- and oxazole-containing synthetic lipoxin A4 mimetics (sLXms)” (Eur J Med Chem, 2019).
Activity calls are given as the source filed them. The rule behind the calls is not given here.

How the values were obtained:
[1] = species on record: Homo sapiens; test: Activation of Luc-fused NFkB (unknown origin) expressed in non-stimulated human THP1 cells assessed as relative luminescence unit at 10^-12 M after 24 hrs by luciferase reporter gene assay (reference value: 100%); assay type: cell-based
[2] = species on record: Homo sapiens; test: Activation of Luc-fused NFkB (unknown origin) expressed in non-stimulated human THP1 cells assessed as relative luminescence unit at 10^-11 M after 24 hrs by luciferase reporter gene assay (reference value: 100%); assay type: cell-based
[3] = species on record: Homo sapiens; test: Activation of Luc-fused NFkB (unknown origin) expressed in non-stimulated human THP1 cells assessed as relative luminescence unit at 10^-10 M after 24 hrs by luciferase reporter gene assay (reference value: 100%); assay type: cell-based
[4] = species on record: Homo sapiens; test: Activation of Luc-fused NFkB (unknown origin) expressed in non-stimulated human THP1 cells assessed as relative luminescence unit at 10^-9 M after 24 hrs by luciferase reporter gene assay (reference value: 100%); assay type: cell-based
[5] = species on record: Homo sapiens; test: Activation of Luc-fused NFkB (unknown origin) expressed in non-stimulated human THP1 cells assessed as relative luminescence unit at 10^-7 M after 24 hrs by luciferase reporter gene assay (reference value: 100%); assay type: cell-based
[6] = species on record: Homo sapiens; test: Activation of Luc-fused NFkB (unknown origin) expressed in non-stimulated human THP1 cells assessed as relative luminescence unit at 10^-6 M after 24 hrs by luciferase reporter gene assay (reference value: 100%); assay type: cell-based
[7] = biological target: T1, N-formyl peptide receptor 2 (Homo sapiens, UniProt P25090); test: Agonist activity at ALX/FPR2 in human THP1 cells harboring NF-kB-Luc assessed as inhibition of LPS-induced NFkB signalling activation pretreated for 30 mins followed by LPS stimulation for 24 hrs by luciferase reporter gene assay; assay type: cell-based
T1 sequence (P25090 whole entry): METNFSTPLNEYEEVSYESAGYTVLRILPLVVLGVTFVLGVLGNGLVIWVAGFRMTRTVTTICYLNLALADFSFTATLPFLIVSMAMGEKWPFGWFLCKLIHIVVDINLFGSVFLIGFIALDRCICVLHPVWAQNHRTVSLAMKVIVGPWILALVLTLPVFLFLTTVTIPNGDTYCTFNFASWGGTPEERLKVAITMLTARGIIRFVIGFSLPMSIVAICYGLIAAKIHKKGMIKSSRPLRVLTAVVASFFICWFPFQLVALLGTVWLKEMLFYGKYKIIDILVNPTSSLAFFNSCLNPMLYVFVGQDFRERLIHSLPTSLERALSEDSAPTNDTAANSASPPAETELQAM

[8] = biological target: T1, N-formyl peptide receptor 2; test: Agonist activity at ALX/FPR2 in human THP1 cells harboring NF-kB-Luc assessed as inhibition of LPS-induced NFkB signalling activation by measuring reduction in IFNgamma secretion pretreated for 30 mins followed by LPS stimulation for 24 hrs by electrochemiluminescence assay; assay type: cell-based
[9] = biological target: T1, N-formyl peptide receptor 2; test: Agonist activity at ALX/FPR2 in human THP1 cells harboring NF-kB-Luc assessed as inhibition of LPS-induced NFkB signalling activation by measuring reduction in IL-12p70 secretion pretreated for 30 mins followed by LPS stimulation for 24 hrs by electrochemiluminescence assay; assay type: cell-based
[10] = biological target: T1, N-formyl peptide receptor 2; test: Agonist activity at ALX/FPR2 in human THP1 cells harboring NF-kB-Luc assessed as inhibition of LPS-induced NFkB signalling activation by measuring reduction in TNFalpha secretion pretreated for 30 mins followed by LPS stimulation for 24 hrs by electrochemiluminescence assay; assay type: cell-based
[11] = biological target: T1, N-formyl peptide receptor 2; test: Agonist activity at ALX/FPR2 in human THP1 cells harboring NF-kB-Luc assessed as inhibition of LPS-induced NFkB signalling activation by measuring reduction in IL-1beta secretion pretreated for 30 mins followed by LPS stimulation for 24 hrs by electrochemiluminescence assay; assay type: cell-based
[12] = biological target: T1, N-formyl peptide receptor 2; test: Agonist activity at ALX/FPR2 in human THP1 cells harboring NF-kB-Luc assessed as inhibition of LPS-induced NFkB signalling activation by measuring reduction in IL-6 secretion pretreated for 30 mins followed by LPS stimulation for 24 hrs by electrochemiluminescence assay; assay type: cell-based
[13] = biological target: T2, N-formyl peptide receptor 2 (Homo sapiens) (UniProt P25090); test: Agonist activity at ALX/FPR2 in human THP1 cells harboring NF-kB-Luc assessed as inhibition of LPS-induced NFkB signalling activation by measuring NF-kB activation level at 10^-12 M pretreated for 30 mins followed by LPS stimulation for 24 hrs by luciferase reporter gene assay; assay type: cell-based; parameters: scale not given: the % may be the effect or the level left
T2 sequence (whole entry): T1 sequence (P25090 whole entry)

[14] = biological target: T2, N-formyl peptide receptor 2 (Homo sapiens); test: Agonist activity at ALX/FPR2 in human THP1 cells harboring NF-kB-Luc assessed as inhibition of LPS-induced NFkB signalling activation by measuring IL-1beta secretion at 10^-12 M pretreated for 30 mins followed by LPS stimulation for 24 hrs by electrochemiluminescence assay (reference value: 100%); assay type: cell-based; parameters: scale not given: the % may be the effect or the level left
[15] = biological target: T2, N-formyl peptide receptor 2 (Homo sapiens); test: Agonist activity at ALX/FPR2 in human THP1 cells harboring NF-kB-Luc assessed as inhibition of LPS-induced NFkB signalling activation by measuring IL-6 secretion at 10^-12 M pretreated for 30 mins followed by LPS stimulation for 24 hrs by electrochemiluminescence assay (reference value: 100%); assay type: cell-based; parameters: scale not given: the % may be the effect or the level left
[16] = biological target: T2, N-formyl peptide receptor 2 (Homo sapiens); test: Agonist activity at ALX/FPR2 in human THP1 cells harboring NF-kB-Luc assessed as inhibition of LPS-induced NFkB signalling activation by measuring IL-12p70 secretion at 10^-12 M pretreated for 30 mins followed by LPS stimulation for 24 hrs by electrochemiluminescence assay (reference value: 100%); assay type: cell-based; parameters: scale not given: the % may be the effect or the level left
[17] = biological target: T2, N-formyl peptide receptor 2 (Homo sapiens); test: Agonist activity at ALX/FPR2 in human THP1 cells harboring NF-kB-Luc assessed as inhibition of LPS-induced NFkB signalling activation by measuring IFNgamma secretion at 10^-12 M pretreated for 30 mins followed by LPS stimulation for 24 hrs by electrochemiluminescence assay (reference value: 100%); assay type: cell-based; parameters: scale not given: the % may be the effect or the level left
[18] = biological target: T2, N-formyl peptide receptor 2 (Homo sapiens); test: Agonist activity at ALX/FPR2 in human THP1 cells harboring NF-kB-Luc assessed as inhibition of LPS-induced NFkB signalling activation by measuring TNFalpha secretion at 10^-12 M pretreated for 30 mins followed by LPS stimulation for 24 hrs by electrochemiluminescence assay (reference value: 100%); assay type: cell-based; parameters: scale not given: the % may be the effect or the level left
[19] = tested on: THP-1; test: Cytotoxicity against human THP1 cells harboring NFkB-Luc assessed as LDH release at 10'12 M after 24 hrs by spectrophotometric method relative to control; assay type: cell-based; conditions: thp-1, 24 h
[20] = species on record: Homo sapiens; test: Activation of Luc-fused NFkB (unknown origin) expressed in non-stimulated human THP1 cells assessed as relative luminescence unit at 10^-8 M after 24 hrs by luciferase reporter gene assay (reference value: 100%); assay type: cell-based
[21] = tested on: THP-1; test: Cytotoxicity against human THP1 cells harboring NFkB-Luc assessed as LDH release at 10'11 M after 24 hrs by spectrophotometric method relative to control; assay type: cell-based; conditions: thp-1, 24 h
[22] = tested on: THP-1; test: Cytotoxicity against human THP1 cells harboring NFkB-Luc assessed as LDH release at 10'10 M after 24 hrs by spectrophotometric method relative to control; assay type: cell-based; conditions: thp-1, 24 h
[23] = tested on: THP-1; test: Cytotoxicity against human THP1 cells harboring NFkB-Luc assessed as LDH release at 10'9 M after 24 hrs by spectrophotometric method relative to control; assay type: cell-based; conditions: thp-1, 24 h
[24] = tested on: THP-1; test: Cytotoxicity against human THP1 cells harboring NFkB-Luc assessed as LDH release at 10'8 M after 24 hrs by spectrophotometric method relative to control; assay type: cell-based; conditions: thp-1, 24 h
[25] = tested on: THP-1; test: Cytotoxicity against human THP1 cells harboring NFkB-Luc assessed as LDH release at 10'7 M after 24 hrs by spectrophotometric method relative to control; assay type: cell-based; conditions: thp-1, 24 h
[26] = tested on: THP-1; test: Cytotoxicity against human THP1 cells harboring NFkB-Luc assessed as LDH release at 10'6 M after 24 hrs by spectrophotometric method relative to control; assay type: cell-based; conditions: thp-1, 24 h
[27] = tested on: HEK293; test: Induction of intracellular calcium accumulation in HEK293 cells at 0.01 nM to 100 nM by Fluo-4 dye based fluorescence spectrophotometric assay; assay type: functional, cell-based; conditions: Homo sapiens
[28] = biological target: T2, N-formyl peptide receptor 2 (Homo sapiens); test: Agonist activity at ALX/FPR2 (unknown origin) expressed in HEK293 cells co-expressing Galphaq assessed as induction of intracellular calcium accumulation at 1 uM by Fluo-4 dye based fluorescence spectrophotometric assay; assay type: functional, cell-based
[29] = tested on: HEK293; test: Induction of intracellular calcium accumulation in HEK293 cells at 1 uM by Fluo-4 dye based fluorescence spectrophotometric assay; assay type: functional, cell-based; conditions: Homo sapiens

Row | Structure (SMILES) | Activity [1] [%] | Activity [2] [%] | Activity [3] [%] | Activity [4] [%] | Activity [5] [%] | Activity [6] [%] | IC50 [7] [nM] | IC50 ([8]; read-out: IC50) [nM] | IC50 ([9]; read-out: IC50) [nM] | IC50 ([10]; read-out: IC50) [nM] | IC50 ([11]; read-out: IC50) [nM] | IC50 ([12]; read-out: IC50) [nM] | Activity [20] [%] | IC50 [8] | IC50 [11] | IC50 [10] | IC50 [12] | other results
1 | CCCCC[C@H](O)c1c(/C=C/[C@@H](O)[C@@H](O)CCCC(=O)OC)nc(C)n1C | 5.2 | 4.4 | 8.9 | 4.6 | 3.7 | 5.5 | 25.3 | 2.2 | 0.1 | 3.4 | 2.6 | 60.6 |  |  |  |  |  | 
2 | CCCCC[C@@H](O)c1ccccc1/C=C/[C@@H](O)[C@@H](O)CCCC(=O)OC | 2.9 |  |  |  |  |  |  |  |  |  |  |  |  |  |  |  |  | Activity [13]: 80%; Activity [14]: 39.7%; Activity [15]: 61.1%; Activity [16]: 62.9%; Activity [17]: 83.9%; Activity [18]: 64.2%; fold change (FC) [19]: 0.9
3 | CCCCC[C@@H](O)c1nc(-c2ccccc2)oc1/C=C/[C@@H](O)[C@@H](O)CCCC(=O)OC(C)C | 3.4 | 2.8 | 3.2 | 2.7 | 3 | 2.7 | 37.3 |  |  | 6.5 |  | 6.8 | 2.6 | Not Active | Not Active |  |  | IC50 [9]: Not Active
4 | CCC[C@H](O)c1c(/C=C/[C@@H](O)[C@@H](O)CCCC(=O)OC)nc(C)n1C | 1.4 | 1.9 | 3.2 | 1.7 | 1.4 | 1.3 | 31.5 | 0.9 | 6 |  | 3.6 |  | 1.6 |  |  | Not Active | Not Active | 
5 | COC(=O)CCC[C@H](O)[C@H](O)/C=C/c1nc(C)n(C)c1[C@H](C)O | 3.1 |  | 4.5 | 3.4 | 3.5 | 2.4 | 27.8 |  |  |  |  |  |  | Not Active | Not Active | Not Active | Not Active | IC50 [9]: Not Active
6 | CCCCC[C@H](O)c1nc(-c2ccccc2)oc1/C=C/[C@@H](O)[C@@H](O)CCCC(=O)OC(C)C | 6.2 | 4.5 | 6.2 | 5.3 | 4 | 6.1 | 69.6 | 2.5 | 5.1 | 6.7 | 3.2 | 31.4 | 4.3 |  |  |  |  | fold change (FC) [19]: 1.1; fold change (FC) [21]: 1.1; fold change (FC) [22]: 1; fold change (FC) [23]: 0.9; fold change (FC) [24]: 1; fold change (FC) [25]: 1; fold change (FC) [26]: 1; Activity [27]: inactive
7 | Nc1ncnc2c1ncn2[C@@H]1O[C@H](COP(=O)(O)OP(=O)(O)OP(=O)(O)O)[C@@H](O)[C@H]1O |  |  |  |  |  |  |  |  |  |  |  |  |  |  |  |  |  | Activity [28]: Active; Activity [29]: Active
8 | CCC[C@@H](O)c1c(/C=C/[C@@H](O)[C@@H](O)CCCC(=O)OC)nc(C)n1C | 1.8 | 1.6 | 1.8 | 2.2 | 1.4 | 0.9 | 40.3 | 4.3 | 3.4 | 4.8 | 3.7 | 55.8 |  |  |  |  |  | 
9 | COC(=O)CCC[C@H](O)[C@H](O)/C=C/c1nc(C)n(C)c1[C@@H](C)O | 9.7 | 8.8 | 9.3 | 8.8 | 9.4 | 9.6 | 27.8 |  | 3.8 |  |  |  | 10.4 | Not Active | Not Active | Not Active | Not Active | 
